Data published in US4018777A, “2-Substituted-5-alkyl resorcinols” (Abbott Laboratories, priority 1975, dated 1977).

Tests used:
[1] = tested on: acetic acid-induced writhing in mice; experiment: Analgesic activity, acetic acid writhing test (W); type: in vivo, mouse (Swiss-Webster female)
Protocol: (§1) The compounds of this invention are useful as analgesic agents, tranquilizers, sedative-hypnotics and anticonvulsants. The compounds are effective at dosages generally of from 1 to 10 mg./kg. of body weight daily. The analgesic activity was established in the standard mouse writhing test [Whittle, Brit. J. Pharmacol., 22, 296 (1964)] and confirmed in the hot plate assay [Woolfe, G. and McDonald, A. J., J. Pharmacol, Exper. Therap., 80, 300 (1944)] and the rat tail flick test.
In testing for the analgesic effect of the present compounds, the acetic acid writhing test was made as that described by [B. A. Whittle, Brit. J. Pharmacol 22, 246 (1964)]. Groups of Swiss-Webster female mice were given oral doses of the drug or control vehicle. The use of the intravenous dye was eliminated. One hour later they were given 0.4 ml. of 0.5% HOAc intraperitoneally. The number of writhes occurring in 20 minutes were counted starting 5 minutes after the injection of HOAc. Analgesic activity was reported as percent inhibition of writhing vs. controls or as ED50%.

[2] = tested on: pain threshold to radiant heat on tail (rat tail flick); experiment: Analgesic activity, rat tail flick (RTF); type: in vivo, rat (male Sprague-Dawley); conditions: oral, 2 hours after dosing
Protocol: as §1
In testing for analgesic activity by the rat tail flick method described by [F. E. D'Amour and D. L. Smith, J Pharmcol. Exp. Ther. 72, 74 (1941)], the method was modified as follows. Groups of male Sprague-Dawley rats weighing 140-170 g. are prepared by blackening their tails with India ink. Radiant heat is focused on their tails and adjusted so that the normal pain threshholds (time in seconds until an escape response or tail flick occurs) are in the range of 8 to 10 seconds. This is followed by oral administration of the test compound and hourly measurements of the animals' pain threshholds. The analgesic effects are listed in Table I as percent increase over initial pain threshhold 2 hours after dosing, or ED50's.

[3] = tested on: methamphetamine (Desoxyn)-induced motor activity; experiment: Antipsychotic activity (Rat Desoxyn antagonism), motor activity; type: in vivo; conditions: oral, one hour before test; for Antipsychotic activity (Rat Desoxyn antagonism): 10 mg./kg., methamphetamine 3 mg./kg. sc, vs. Desoxyn treated controls
Protocol: Antipsychotic Activity (Rat Desoxyn Antagonism)
Antipsychotic activity (Desoxyn antagonism) was evaluated in motor activity chambers equipped with photocells. Groups of nine rats were given the compound orally one hour before the test and then administered methamphetamine (Desoxyn) 3 mg./kg. sc, and placed in the chamber. Changes in motor activity were recorded as counts from the photocells and are compared to Desoxyn treated controls.

[4] = tested on: audiogenic seizure in mice; experiment: Anticonvulsant activity, audiogenic seizure test (mouse); type: in vivo, mouse (male O'Grady strain); conditions: 1 hr.; for Anticonvulsant activity, audiogenic seizure: % protection: 100 mg./kg.
Source text: Audiogenic Seizure Test (Mouse)
Male O'Grady strain mice (14 to 16 g.) especially bred for susceptibility to audiogenic seizures were used as subjects. The audiogenic apparatus consisted of a wooden box enclosing a metal container with two doorbells attached to the upper section. […] [Ref: N. P. Plotnikoff and D. M. Green, J, Pharmacol. Exp. Ther., 119, 294 (1957)].

Row | Structure (SMILES) | Analgesic activity, RTF: percent increase over initial pain threshhold ([2]; 40 mg./kg.) [%] | Anticonvulsant activity, audiogenic seizure: % protection [4] [%] | Antipsychotic activity (Rat Desoxyn antagonism) [3] [%] | other results
1 | CCCCCC(C)C(C)c1cc(OC(C)=O)c(-c2cnccc2C(C)C)c(OC(C)=O)c1 (stereo not drawn) [Compound (IX), 1,3-Diacetyl-2-[4-Isopropyl-3-Pyridyl]-5-(3-Methyl-2-Octyl)Resorcinol] | 20 | – | – | Analgesic activity, W(PO): percent inhibition of writhing vs. controls ([1]; 80 mg./kg.): 30%
2 | C=C(C)c1ccncc1-c1c(O)cc(C(C)C(C)CCCCC)cc1O (stereo not drawn) [Compound (VIII), 2-[4-Isopropenyl-3-Pyridyl]-5-(3-Methyl-2-Octyl) Resorcinol] | 59 | 100 | – | Antipsychotic activity (Rat Desoxyn antagonism), result in words ([3]; dose not stated): Inactive
3 | CCCCCC(C)C(C)c1cc(O)c(-c2cc(C)ccc2C(C)C)c(O)c1 (stereo not drawn) [Compound (XII), 2-[(2-Isopropyl-5-methyl)phenyl]-5-(3-methyl-2-octyl)resorcinol] | – | 60 | 77 | Analgesic activity, W(PO): percent inhibition of writhing vs. controls ([1]; 40 mg./kg.): 47%; Analgesic activity, RTF: percent increase over initial pain threshhold ([2]; 22 mg./kg.): 45%
4 | C=C(C)c1ccc(C)cc1-c1c(OC(C)=O)cc(C(C)C(C)CCCCC)cc1OC(C)=O (stereo not drawn) [Compound (XI), 1,3-Diacetyl-2-[(2-isopropenyl-5-methyl)phenyl]-5-(3-methyl-2-octyl)resorcinol] | – | 70 | 55 | Analgesic activity, W(PO): percent inhibition of writhing vs. controls ([1]; 10-40 mg./kg.): 40-50%
5 | CCCCCC(C)C(C)c1cc(O)c(-c2cnccc2C(C)C)c(O)c1 (stereo not drawn) [Compound (X), 2-[4-Isopropyl-3-pyridyl]-5-(3-methyl-2-octyl)resorcinol] | 53 | 60 | – | ED50 ([1]; Mus musculus, po): 44 mg/kg
6 | C=C(C)c1ccncc1-c1c(OC(C)=O)cc(C(C)C(C)CCCCC)cc1OC(C)=O (stereo not drawn) [Compound (VII), 1,3-Diacetyl-2-[4-Isopropenyl-3-Pyridyl]-5-(3-Methyl-2-Octyl)Resorcinol] | – | – | 66 | Analgesic activity, RTF: percent increase over initial pain threshhold ([2]; 20 mg./kg.): 23%; ED50 ([4]; Mus musculus, protection, estimated (est.)): ~9 mg/kg
